From patent US20260217708A1, “FUSED BENZAZEPINE DERIVATIVES FOR USE IN THE TREATMENT OF CANCER AND EPILEPSY” (UCB BIOPHARMA SRL, priority 2023, published 2026)

Columns and labels:
system Xc^− [1] = molecular target: T1, system Xc^− (Homo sapiens, UniProt Q9UPY5); test: Cystine-induced glutamate release assay; type: cell-based; set-up: endogenous in cells; host or cells: H4 cells; details: H4 cells, sodium-free HEPES buffer, 50 μM L-Cystine, 2 hours, Amplex Red glutamate readout; read-out: pIC50 Cystine-induced glutamate release assay (converted)
T1 sequence (Q9UPY5 1-501): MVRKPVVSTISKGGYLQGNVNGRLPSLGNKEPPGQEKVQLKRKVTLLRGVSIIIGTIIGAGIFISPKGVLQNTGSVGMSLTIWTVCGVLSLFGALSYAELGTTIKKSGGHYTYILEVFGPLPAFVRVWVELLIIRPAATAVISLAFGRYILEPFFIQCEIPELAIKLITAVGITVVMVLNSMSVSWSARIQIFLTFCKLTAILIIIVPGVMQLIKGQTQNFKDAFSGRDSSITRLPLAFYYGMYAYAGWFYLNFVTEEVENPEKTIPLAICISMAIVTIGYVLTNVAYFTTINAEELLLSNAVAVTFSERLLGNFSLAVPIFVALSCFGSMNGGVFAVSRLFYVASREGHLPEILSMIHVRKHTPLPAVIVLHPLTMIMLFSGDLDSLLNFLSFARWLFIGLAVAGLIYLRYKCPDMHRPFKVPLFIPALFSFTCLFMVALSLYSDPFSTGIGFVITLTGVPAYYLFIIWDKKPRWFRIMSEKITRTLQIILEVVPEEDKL
T1 sequence (P08195 1-529 partner): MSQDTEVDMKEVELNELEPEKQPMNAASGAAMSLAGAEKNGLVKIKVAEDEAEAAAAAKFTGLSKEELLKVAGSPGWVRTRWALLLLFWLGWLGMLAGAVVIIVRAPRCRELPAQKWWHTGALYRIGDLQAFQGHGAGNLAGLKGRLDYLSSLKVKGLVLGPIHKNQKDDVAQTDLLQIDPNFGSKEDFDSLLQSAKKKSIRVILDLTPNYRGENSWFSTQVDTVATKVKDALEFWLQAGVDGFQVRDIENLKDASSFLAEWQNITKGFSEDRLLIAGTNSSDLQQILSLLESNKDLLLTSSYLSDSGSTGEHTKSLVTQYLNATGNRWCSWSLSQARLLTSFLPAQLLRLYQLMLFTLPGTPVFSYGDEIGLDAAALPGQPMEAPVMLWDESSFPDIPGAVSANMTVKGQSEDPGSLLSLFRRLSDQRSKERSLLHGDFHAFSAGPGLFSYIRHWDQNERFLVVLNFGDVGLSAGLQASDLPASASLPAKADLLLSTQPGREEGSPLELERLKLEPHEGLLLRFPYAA
In short: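 H4 cells in sodium-free HEPES buffer (pH 7.4), 2 days after plating; glutamate release induced with 50 μM L-cystine plus compound (1% DMSO), 2 h at 37 °C. Supernatant glutamate measured by Amplex Red fluorescence; IC50/pIC50 derived between 1% DMSO and 50 μM erastin controls.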

system Xc^− [2] = molecular target: T1, system Xc^−; test: [^14C]L-Cystine uptake assay; type: cell-based; set-up: endogenous in cells; host or cells: H4 cells; details: H4 cells, sodium-free HEPES buffer, 0.5 μM L-[14C]Cystine and 4.5 μM L-Cystine, 1 hour at 37° C.; read-out: pIC50 [^14C] L-Cystine uptake assay (converted)
In short: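 H4 cells at 5×10^4 cells/well in sodium-free HEPES buffer were preincubated 15 min with compounds (1% DMSO). Uptake of 0.5 μM [14C]L-cystine plus 4.5 μM unlabelled L-cystine ran 1 hour at 37° C on scintillating plates. IC50 was set between 1% DMSO and 50 μM Erastin controls and expressed as pIC50.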

Row | SMILES | IC50 (system Xc^− [1]) [µM] | IC50 (system Xc^− [2]) [µM]
1 | Cc1cc2c(c(Cl)n1)-c1cncnc1C(C)C(=O)N2CC(=O)Nc1ccc(C(F)(F)F)cc1 (stereo not drawn) [#163, 2-(15-chloro-8,13-dimethyl-9-oxo-4,6,10,14-tetrazatricyclo[9.4.0.0^2,7]pentadeca-1(11),2(7),3,5,12,14-hexaen-10-yl)-N-[4-(trifluoromethyl)phenyl]acetamide] | 0.0158 to 0.0398 | 0.0158 to 0.0398
2 | COc1ccc2c(c1)-c1c(cc(C)nc1Cl)N(CC(=O)Nc1ccc(C(F)(F)F)cc1)C(=O)C2C (stereo not drawn) [#164, 2-(1-chloro-10-methoxy-3,7-dimethyl-6-oxo-7H-pyrido[4,3-d][3]benzazepin-5-yl)-N-[4-(trifluoromethyl)phenyl]acetamide] | 0.1 to 0.501 | 0.0398 to 0.1
3 | Cc1cc2c(c(F)n1)-c1cccc(CO)c1CC(=O)N2CC(=O)Nc1ccc(C(F)(F)F)cc1 [#165, 2-[1-fluoro-8-(hydroxymethyl)-3-methyl-6-oxo-7H-pyrido[4,3-d][3]benzazepin-5-yl]-N-[4-(trifluoromethyl)phenyl]acetamide] | 0.1 to 0.501 | 0.1 to 0.501
4 | Cc1cc2c(n(C)c1=O)-c1ccccc1N(C)C(=O)N2CC(=O)Nc1ccc(Cl)c(F)c1 [#166, N-(4-chloro-3-fluoro-phenyl)-2-(1,3,7-trimethyl-2,6-dioxo-pyrido[3,2-d][1,3]benzodiazepin-5-yl)acetamide] | 0.0158 to 0.0398 | 0.0158 to 0.0398
5 | Cc1nc(C#N)cc2c1-c1cccnc1CC(=O)N2CC(=O)Nc1ccc(C(F)(F)F)cc1 [#167, 2-(5-cyano-3-methyl-9-oxo-4,8,12-triazatricyclo[9.4.0.0^2,7]pentadeca-1(11),2(7),3,5,12,14-hexaen-8-yl)-N-[4-(trifluoromethyl)phenyl]acetamide] | 0.0398 to 0.1 | 0.0158 to 0.0398
6 | O=C(CN1C(=O)Cc2ncccc2-c2c1cc(Cl)nc2Cl)Nc1ccc(C(F)(F)F)cc1 [#168, 2-(3,5-dichloro-9-oxo-4,8,12-triazatricyclo[9.4.0.0^2,7]pentadeca-1(11),2(7),3,5,12,14-hexaen-8-yl)-N-[4-(trifluoromethyl)phenyl]acetamide] | 0.1 to 0.501 | 0.0158 to 0.0398
7 | CNc1cc2c(c(Cl)n1)-c1cccnc1CC(=O)N2CC(=O)Nc1ccc(C(F)(F)F)cc1 [#169, 2-[3-chloro-5-(methylamino)-9-oxo-4,8,12-triazatricyclo[9.4.0.0^2,7]pentadeca-1(11),2(7),3,5,12,14-hexaen-8-yl]-N-[4-(trifluoromethyl)phenyl]acetamide] | 0.1 to 0.501 | 0.0158 to 0.0398
8 | CN1CC(c2cc3c(c(Cl)n2)-c2cccnc2CC(=O)N3CC(=O)Nc2ccc(C(F)(F)F)cc2)C1 [#170, 2-[3-chloro-5-(1-methylazetidin-3-yl)-9-oxo-4,8,12-triazatricyclo[9.4.0.0^2,7]pentadeca-1(11),2(7),3,5,12,14-hexaen-8-yl]-N-[4-(trifluoromethyl)phenyl]acetamide] | 0.0398 to 0.1 | 0.0398 to 0.1
9 | Cc1cc2c(c(F)n1)-c1cncc(F)c1C(C)C(=O)N2CC(=O)Nc1ccc(C(F)(F)F)cc1 (stereo not drawn) [#171, 2-(3,12-difluoro-5,10-dimethyl-9-oxo-4,8,14-triazatricyclo[9.4.0.0^2,7]pentadeca-1(11),2(7),3,5,12,14-hexaen-8-yl)-N-[4-(trifluoromethyl)phenyl]acetamide] | 0.0398 to 0.1 | 0.0158 to 0.0398
10 | Cc1cc2c(c(F)n1)-c1ccnnc1C(C)C(=O)N2CC(=O)Nc1ccc(C(F)(F)F)cc1 (stereo not drawn) [#172, 2-(3-fluoro-5,10-dimethyl-9-oxo-4,8,12,13-tetrazatricyclo[9.4.0.0^2,7]pentadeca-1(11),2(7),3,5,12,14-hexaen-8-yl)-N-[4-(trifluoromethyl)phenyl]acetamide] | 0.0158 to 0.0398 | 0.0158 to 0.0398
11 | Cc1cc2c(c(Cl)n1)-c1ccnnc1C(C)C(=O)N2CC(=O)Nc1ccc(C(F)(F)F)cc1 (stereo not drawn) [#173, 2-(3-chloro-5,10-dimethyl-9-oxo-4,8,12,13-tetrazatricyclo[9.4.0.0^2,7]pentadeca-1(11),2(7),3,5,12,14-hexaen-8-yl)-N-[4-(trifluoromethyl)phenyl]acetamide] | 0.0158 to 0.0398 | < 0.0158
12 | Cc1cc2c(c(=O)n1C1CC1)-c1cccnc1C(C)C(=O)N2CC(=O)Nc1ccc(Cl)c(F)c1 (stereo not drawn) [#179, N-(4-chloro-3-fluoro-phenyl)-2-(4-cyclopropyl-5,10-dimethyl-3,9-dioxo-4,8,12-triazatricyclo[9.4.0.0^2,7]pentadeca-1(11),2(7),5,12,14-pentaen-8-yl)acetamide] | 0.0398 to 0.1 | 0.0158 to 0.0398
13 | Cc1cc2c(c(F)n1)-c1cnccc1C(C)C(=O)N2CC(=O)Nc1ccc(C(F)(F)F)cc1 (stereo not drawn) [#180, 2-(3-fluoro-5,10-dimethyl-9-oxo-4,8,14-triazatricyclo[9.4.0.0^2,7]pentadeca-1(11),2(7),3,5,12,14-hexaen-8-yl)-N-[4-(trifluoromethyl)phenyl]acetamide] | 0.0398 to 0.1 | 0.0158 to 0.0398
14 | Cc1cc2c(n(C)c1=O)-c1ccc(Cl)cc1C(C)C(=O)N2CC(=O)Nc1ccc(Cl)c(F)c1 (stereo not drawn) [#181, N-(4-chloro-3-fluoro-phenyl)-2-(9-chloro-1,3,7-trimethyl-2,6-dioxo-7H-pyrido[3,2-d][3]benzazepin-5-yl)acetamide] | 0.0158 to 0.0398 | < 0.0158
15 | COc1cc2c(c(F)n1)-c1cccnc1C(C)C(=O)N2CC(=O)Nc1ccc(C(F)(F)F)cc1 (stereo not drawn) [#182, 2-(3-fluoro-5-methoxy-10-methyl-9-oxo-4,8,12-triazatricyclo[9.4.0.0^2,7]pentadeca-1(11),2(7),3,5,12,14-hexaen-8-yl)-N-[4-(trifluoromethyl)phenyl]acetamide] | 0.0158 to 0.0398 | 0.0158 to 0.0398
16 | Cc1cc2c(c(F)n1)-c1cc[nH]c(=O)c1CC(=O)N2CC(=O)Nc1ccc(C(F)(F)F)cc1 [#183, 2-(3-fluoro-5-methyl-9,12-dioxo-4,8,13-triazatricyclo[9.4.0.0^2,7]pentadeca-1(11),2(7),3,5,14-pentaen-8-yl)-N-[4-(trifluoromethyl)phenyl]acetamide] | 0.1 to 0.501 | 0.0398 to 0.1
17 | CC1C(=O)N(CC(=O)Nc2ccc(C(F)(F)F)cc2)c2cc(F)c(=O)n(C)c2-c2cccnc21 (stereo not drawn) [#185, 2-(5-fluoro-3,10-dimethyl-4,9-dioxo-3,8,12-triazatricyclo[9.4.0.0^2,7]pentadeca-1(11),2(7),5,12,14-pentaen-8-yl)-N-[4-(trifluoromethyl)phenyl]acetamide] | 0.0398 to 0.1 | 0.0398 to 0.1
18 | Cc1cc2c(c(F)n1)-c1cncc(F)c1CC(=O)N2CC(=O)Nc1ccc(C(F)(F)F)cc1 [#212, 2-(3,12-difluoro-5-methyl-9-oxo-4,8,14-triazatricyclo[9.4.0.0^2,7]pentadeca-1(11),2(7),3,5,12,14-hexaen-8-yl)-N-[4-(trifluoromethyl)phenyl]acetamide] | 0.1 to 0.501 | 0.0158 to 0.0398
19 | Cc1cc2c(c(F)n1)-c1cccnc1[C@@H](C)C(=O)N2CC(=O)Nc1ccc(F)cc1 [#233, 2-[(10R)-3-fluoro-5,10-dimethyl-9-oxo-4,8,12-triazatricyclo[9.4.0.0^2,7]pentadeca-1(15),2,4,6,11,13-hexaen-8-yl]-N-(4-fluorophenyl)acetamide] | 0.0398 to 0.1 | 0.0158 to 0.0398
20 | Cc1cc2c(c(F)n1)-c1cccnc1[C@@H](C)C(=O)N2CC(=O)Nc1ccc2c(c1)CC(F)(F)C2 [#237, N-(2,2-difluoroindan-5-yl)-2-[(10R)-3-fluoro-5,10-dimethyl-9-oxo-4,8,12-triazatricyclo[9.4.0.0^2,7]pentadeca-1(15),2,4,6,11,13-hexaen-8-yl]acetamide] | 0.0158 to 0.0398 | 0.0398 to 0.1
21 | Cc1cc2c(c(F)n1)-c1cccnc1[C@@H](C)C(=O)N2CC(=O)Nc1ccc2c(c1)OC(F)(F)O2 [#238, N-(2,2-difluoro-1,3-benzodioxol-5-yl)-2-[(10R)-3-fluoro-5,10-dimethyl-9-oxo-4,8,12-triazatricyclo[9.4.0.0^2,7]pentadeca-1(15),2,4,6,11,13-hexaen-8-yl]acetamide] | 0.0398 to 0.1 | 0.0398 to 0.1
